In test [1] the test system is Staphylococcus epidermidis. In words: Antimicrobial activity against Staphylococcus epidermidis 12228 assessed as increase in absorbance incubated for 20 to 22 hrs. In kind it is functional. The conditions noted are these: time 20-22 hrs.
A further test relates to Mus musculus. In words: Anti-inflammatory activity against Escherichia coli ATCC 25922-induced peritonitis ICR mouse model assessed as decrease in IL-6 level in serum spleen at 10 mg/kg, ip measured after 12 hrs. In kind it is functional, organism-based.
The next test relates to Salmonella typhimurium. Description: Antimicrobial activity against Salmonella typhimurium 7731 assessed as increase in absorbance incubated for 20 to 22 hrs. In kind it is functional, Salmonella enterica subsp. enterica serovar Typhimurium. The settings on record: Salmonella enterica, time 20-22 hrs.
A further test concerns Escherichia coli. In words: Antimicrobial activity against Escherichia coli ATCC 25922 assessed as increase in absorbance incubated for 4 hrs in presence of 50% serum. In kind it is functional, organism-based.

The values below come from ChEMBL document CHEMBL6087476, “Positive Charge-Concentrated Dimeric Lipopeptides with Enhanced Protease Resistance: A Potential Solution for Systemic Bacterial Infections” (J Med Chem, 2025).

≈ marks a conversion by molar mass, not a printed value. Calls of active or inactive are those of the source. No cut-off for these calls is given here.

As usually defined, the MIC is the lowest concentration that inhibits growth of the organism. Consider `CCCCCCCCCC(=O)NCCCC[C@H](N)C(=O)NCC(=O)NCC(=O)NCC(=O)N[C@H](CCCNC(=N)N)C(=O)N[C@@H](CCCNC(=N)N)C(=O)N[C@@H](CCCNC(=N)N)C(=O)N1CCC[C@H]1C(=O)N[C@@H](CSSC[C@H](NC(=O)[C@@H]1CCCN1C(=O)[C@H](CCCNC(=N)N)NC(=O)[C@H](CCCNC(=N)N)NC(=O)[C@@H](CCCNC(=N)N)NC(=O)CNC(=O)CNC(=O)CNC(=O)[C@@H](N)CCCCNC(=O)CCCCCCCCC)C(=O)O)C(=O)O`, for which the results for the MIC (in test [1]; in the test with Salmonella typhimurium) were 8 µM (≈ 18.2 µg/mL) and 4 µM (≈ 9.12 µg/mL), respectively. Moreover, the result with Mus musculus and in the test on Escherichia coli was Active.
